Like-named read-outs stand apart in the source and are kept apart here.
Tests used:
Fibrosarcoma Meth A [1] = assay: Test Method B: intrapleurally inoculated Meth A tumor in mice, injection into pleural cavity, mean survival time; type: in vivo, BALB/c mice; design: dose or concentration left out as unconfirmed; settings: for Anti-tumor activity (%) *d: comparison of mean survival time of medicated group (T) and control group (C), into pleural cavity three times; for Mean survival time: into pleural cavity three times (before 14 days, after 1 hour and after 3 days of tumor implantation), 5 x 10^5 Meth A cells intrapleurally
Method: Groups of eight female BALB/c mice, aged 8-9 weeks and weighing 18.0-22.5 g were used.
Fibrosarcoma Meth A (hereinafter referred to as Meth A) was successively transferred every 7 days into BALB/c mice by intraperitoneal inoculation of the ascites cells thereof and the Meth A in the ascites cells as harvested 6 or 7 days after the inoculation was used as tumor cells.
Each of the BALB/c mice was inoculated intrapleurally with 5 x 10^5 Meth A cells in 0.1 ml Hanks solution.
Test compound was dissolved in phosphate buffer saline solution, and was injected into pleural cavity to each of the mice in doses of 100 pg/0.05 ml/mouse three times, i.e. before 14 days, after 1 hour and after 3 days of tumor implantation.
The antitumor activity of the test compound was estimated by comparing mean survival time of the two groups. • T : Mean survival time of the medicated group • C : Mean survival time of the control group

Fibrosarcoma Meth A [2] = assay: Test Method A: intradermally inoculated Meth A tumor in mice, intratumoral injection of test compound, tumor growth inhibition; type: in vivo, BALB/c mice; settings: 100 µg/mouse intratumorally once daily from Day 1 to Day 4 postimplant; for responders at 0.1 mg / inhibition in vivo at 0.1 mg: Meth-A; for responders at 0.1 mg: read-out: Ratio of tumor free mice [Number of tumor free mice/ Number of mice used as a group] (converted); for inhibition in vivo at 0.1 mg: Mus musculus, read-out: Tumor growth inhibition (%) [(1-T/c)x100]; for Mean of two diameters of the growing tumor: 1 x 10^5 Meth A cells intradermally
Method: Groups of six female BALB/c mice, aged 12 weeks and weighing 19 - 21 g were used.
Fib,rosarcoma Meth A (hereinafter referred to as Meth A) was successively transferred every 7 days into BALB/c mice by intraperitoneal inoculation of the ascites cells thereof and the Meth A in the ascites cells as harvested 6 days after the inoculation was used as tumor cells.
Each of the BALB/c mice was inoculated intradermally with 1 x 10^5 Meth A cells in 0.05 ml Hanks solution.
Test compound was dissolved in 0.5% methylcellulose saline solution, and was intratumorally injected to each of the mice in doses of 100 µg/mouse once daily from Day 1 to Day 4 postimplant.
The control group was given with a vehicle alone in the same way.
The antitumor effectiveness of the test compound was estimated by tumor growth inhibition (1-T/C). • T: Mean diameter of the growing tumor of the medicated group • C: Mean diameter of the growing tumor of the control group

For CCCCCCCCCCCCCCCCOCC(COP(=O)(O)OCCN1CCN(C)CC1)OC (racemic) [3-(2), (rac)-1-0-Hexadecyl-2-0-methyl-glycerol-3-[2-(4-methyl-l-piperazinyl)ethyl]phosphate], the “Anti-tumor activity (%) *d” value (Fibrosarcoma Meth A [1]) was 350% and the Mean survival time (Fibrosarcoma Meth A [1]) was 21.0 days.
With CCCCCCCCCCCCCCCCCCOCC(COP(=O)(O)OCCN1CCN(CC)CC1)OC (racemic) [3-(3), (rac)-1-0-Octadecyl-2-0-methyl-glycerol-3-[2-(4-ethyl-l-piperazinyl)ethyl]phosphate] the “Anti-tumor activity (%) *d” value (Fibrosarcoma Meth A [1]) was 317% and the Mean survival time (Fibrosarcoma Meth A [1]) was 19.0 days.
With CCCCCCCCCCCCCCCCCCOCC(COP(=O)(O)OCCN1CCN(CCO)CC1)OC (racemic) [3-(7), (rac)-1-0-Octadecyl-2-0-methyl-glycerol-3-[2-[4-(2-hydroxyethyl)-1-piperazinyl]ethyl]phosphate] the “Anti-tumor activity (%) *d” value (Fibrosarcoma Meth A [1]) was 325% and the Mean survival time (Fibrosarcoma Meth A [1]) was 19.5 days.
With CCCCCCCCCCCCCCCCCCOCC(COP(=O)([O-])OCC[n+]1ccc(C)cc1)OC (racemic) [3-(9), (rac)-1-0-Octadecyl-2-0-methyl-glycerol-3-[2-(4-methyl-l-pyridinio)ethyl]phosphate] the “Anti-tumor activity (%) *d” value (Fibrosarcoma Meth A [1]) was 350% and the Mean survival time (Fibrosarcoma Meth A [1]) was 21.0 days.
For CCCCCCCCCCCCCCCCCCOCC(COP(=O)([O-])OCC[n+]1cccc(C)c1)OC (racemic) [3-(10), (rac)-1-0-Octadecyl-2-0-methyl-glycerol-3-(2-(3-methyl-1-pyridinio)ethyl]phosphate], the “Anti-tumor activity (%) *d” value (Fibrosarcoma Meth A [1]) was 364% and the Mean survival time (Fibrosarcoma Meth A [1]) was 25.5 days.
In the case of CCCCCCCCCCCCCCCCCCOCC(COP(=O)([O-])OCC[n+]1ccccn1)OC (racemic) [3-(12), (rac)-1-0-Octadecyl-2-0-methyl-glycerol-3-[2-(1-pyridazinio)ethyl]phosphate], the “Anti-tumor activity (%) *d” value (Fibrosarcoma Meth A [1]) is reported as 333% and the Mean survival time (Fibrosarcoma Meth A [1]) is reported as 20.0 days.
In the case of CCCCCCCCCCCCCCCCCCOCC(COP(=O)(O)OCCn1ccnc1)OC (racemic) [3-(13), (rac)-1-0-Octadecyl-2-0-methyl-glycerol-3-[2-(1-imidazolyl)ethyl]phosphate], the “Ratio of tumor free mice [Number of tumor free mice/ Number of mice used as a group]” value (“Ratio of tumor free mice” below) (Fibrosarcoma Meth A [2]; Day 21) is reported as 0/6, the responders at 0.1 mg (Fibrosarcoma Meth A [2]; Day 14) is reported as 0% and the inhibition in vivo at 0.1 mg (Fibrosarcoma Meth A [2]; Day 14) is reported as 37%. It also gave an inhibition in vivo at 0.1 mg (Fibrosarcoma Meth A [2]; Day 21) of 31%.
With CCCCCCCCCCCCCCCCCCOCC(COP(=O)(O)OCCN1CCCCC1)OC (racemic) [3-(14), (rac)-l-O-Octadecyl-2-0-methyl-glycerol-3-(2-piperidinoethyl)phosphate] the “Anti-tumor activity (%) *d” value (Fibrosarcoma Meth A [1]) was 325% and the Mean survival time (Fibrosarcoma Meth A [1]) was 19.5 days.
With CCCCCCCCCCCCCCCCCCOCC(COP(=O)(O)OCCN1CCN(C)CC1)OC (racemic) [3-(16), (rac)-1-O-Octadecyl-2-0-methyl-glycerol-3-[2-(4-methyl-l-piperazinyl)ethyl]phosphate] the “Anti-tumor activity (%) *d” value (Fibrosarcoma Meth A [1]) was 350% and the Mean survival time (Fibrosarcoma Meth A [1]) was 21.0 days.
With CCCCCCCCCCCCCCCCCCOCC(COP(=O)([O-])OCC[n+]1cccn1C)OC (racemic) [3-(18), (rac)-1-0-Octadecyl-2-0-methyl-glycerol-3-[2-(1-methyl-2-pyrazolio)ethyl]phosphate] the “Anti-tumor activity (%) *d” value (Fibrosarcoma Meth A [1]) was 325% and the Mean survival time (Fibrosarcoma Meth A [1]) was 19.5 days.
For CCCCCCCCCCCCCCCCCCOCC(COP(=O)([O-])OCC[n+]1ccccc1)OCC (racemic) [3-(19), (rac)-1-0-Octadecyl-2-0-ethyl-glycerol-3-[2-(1-pyridinio)ethyl]phosphate], the “Anti-tumor activity (%) *d” value (Fibrosarcoma Meth A [1]) was 317% and the Mean survival time (Fibrosarcoma Meth A [1]) was 19.0 days.
For CCCCCCCCCCCCCCCCCCOCC(COP(=O)([O-])OCC[n+]1cnn(C)c1)OC (racemic) [3-(21), (rac)-1-0-Octadecyl-2-0-methyl-glycerol-3-[2-(1-methyl-1,2,4-triazol-4-io)ethyl]phosphate], the “Mean of two diameters of the growing tumor” value (Fibrosarcoma Meth A [2]; Day 14) was 0 mm, the “Ratio of tumor free mice” value (Fibrosarcoma Meth A [2]; Day 21) was 6/6 and the “Mean of two diameters of the growing tumor” value (Fibrosarcoma Meth A [2]; Day 21) was 0 mm. It also gave a responders at 0.1 mg (Fibrosarcoma Meth A [2]; Day 14) of 100%, an inhibition in vivo at 0.1 mg (Fibrosarcoma Meth A [2]; Day 14) of 100% and an inhibition in vivo at 0.1 mg (Fibrosarcoma Meth A [2]; Day 21) of 100%.
CCCCCCCCCCCCCCCCCCOCC(COP(=O)([O-])OCC[n+]1ccsc1)OC (racemic) [3-(22), (rac)-1-O-Octadecyl-2-0-methyl-glycerol-3-[2-(3-thiazolio)ethyl]phosphate] was tested, and the “Ratio of tumor free mice” value (Fibrosarcoma Meth A [2]; Day 21) was 3/6, the responders at 0.1 mg (Fibrosarcoma Meth A [2]; Day 14) was 50% and the inhibition in vivo at 0.1 mg (Fibrosarcoma Meth A [2]; Day 14) was 77%. For the same molecule, the inhibition in vivo at 0.1 mg (Fibrosarcoma Meth A [2]; Day 21) was 68%.
For CCCCCCCCCCCCCCCCCCOCC(COP(=O)([O-])OCC[n+]1cccc(C(=O)OCC)c1)OC (racemic) [3-(23), (rac)-1-0-Octadecyl-2-0-methyl-glycerol-3-[2-(3-ethoxycarbonyl-1-pyridinio)ethyl]phosphate], the “Ratio of tumor free mice” value (Fibrosarcoma Meth A [2]; Day 21) was 3/6, the responders at 0.1 mg (Fibrosarcoma Meth A [2]; Day 14) was 50% and the inhibition in vivo at 0.1 mg (Fibrosarcoma Meth A [2]; Day 14) was 77%. For the same molecule, the inhibition in vivo at 0.1 mg (Fibrosarcoma Meth A [2]; Day 21) was 70%.
CCCCCCCCCCCCCCCCCCOCC(COP(=O)([O-])OCC[n+]1ccn(C)c1)OC (racemic) [3-(25), (rac)-1-0-Octadecyl-2-0-methyl-glycerol-3-[2-(1-methyl-3-imidazolio)ethyl]phosphate] was tested, and the “Ratio of tumor free mice” value (Fibrosarcoma Meth A [2]; Day 21) was 5/6, the responders at 0.1 mg (Fibrosarcoma Meth A [2]; Day 14) was 83.3% and the inhibition in vivo at 0.1 mg (Fibrosarcoma Meth A [2]; Day 14) was 94%. It also gave an inhibition in vivo at 0.1 mg (Fibrosarcoma Meth A [2]; Day 21) of 93%.
CCCCCCCCCCCCCCCCOCC(COP(=O)([O-])OCC[n+]1ccccc1)OCc1ccccc1 (racemic) [3-(26), (rac)-l-0-Hexadecyl-2-0-benzyl-glycerol-3-[2-(l-pyridinio)ethyl]phosphate] was tested, and the “Anti-tumor activity (%) *d” value (Fibrosarcoma Meth A [1]) was over 650% and the Mean survival time (Fibrosarcoma Meth A [1]) was over 39.0 days.
In the case of CCCCCCCCCCCCCCCCCCOCC(O)COP(=O)([O-])OCC[n+]1ccccc1 (racemic) [3-(30), (rac)-1-0-Octadecyl-glycerol-3-[2-(1-pyridinio)ethyl]-phosphate], the “Ratio of tumor free mice” value (Fibrosarcoma Meth A [2]; Day 21) is reported as 4/6, the responders at 0.1 mg (Fibrosarcoma Meth A [2]; Day 14) is reported as 66.7% and the inhibition in vivo at 0.1 mg (Fibrosarcoma Meth A [2]; Day 14) is reported as 85%. It also gave an inhibition in vivo at 0.1 mg (Fibrosarcoma Meth A [2]; Day 21) of 84%.
For CCCCCCCCCCCCCCCCCCOCC(COP(=O)([O-])OCC[n+]1ccccc1)SC (racemic) [3-(31), (rac)-1-0-Octadecyl-2-methylthio-1,3-propanediol-3-[2-(l-pyridinio)ethyl]phosphate], the “Anti-tumor activity (%) *d” value (Fibrosarcoma Meth A [1]) was 358% and the Mean survival time (Fibrosarcoma Meth A [1]) was 21.5 days.
With CCCCCCCCCCCCCCCCCCOCC(COP(=O)([O-])OCCNC(=O)C[n+]1ccccc1)OC (racemic) [5-(2), (rac)-1-0-Octadecyl-2-0-methyl-glycerol-3-[2-(1-pyridinioacetylamino)ethyl]phoshate] the “Anti-tumor activity (%) *d” value (Fibrosarcoma Meth A [1]) was 364% and the Mean survival time (Fibrosarcoma Meth A [1]) was 25.5 days.
CCCCCCCCCCCCCCCCCCOCC(COP(=O)([O-])OCC[n+]1ccccc1)Sc1nncs1 (racemic) [8-(4), (rac)-1-0-Octadecyl-2-(1,3,4-thiadiazolyl-2-thio)-1,3-propanediol-3-[2-(1-pyridinio)ethyl]phosphate] was tested, and the “Anti-tumor activity (%) *d” value (Fibrosarcoma Meth A [1]) was 417% and the Mean survival time (Fibrosarcoma Meth A [1]) was 25.0 days.
In the case of CCCCCCCCCCCCCCCCCCOCC(Cl)COP(=O)([O-])OCC[n+]1ccccc1 (racemic) [9-(4), (rac)-1-0-Octadecyl-2-chloro-1,3-propanediol-3-[2-(1-pyridinio)ethyl]phosphate], the “Ratio of tumor free mice” value (Fibrosarcoma Meth A [2]; Day 21) is reported as 4/6, the responders at 0.1 mg (Fibrosarcoma Meth A [2]; Day 14) is reported as 66.7% and the inhibition in vivo at 0.1 mg (Fibrosarcoma Meth A [2]; Day 14) is reported as 92%. It also gave an inhibition in vivo at 0.1 mg (Fibrosarcoma Meth A [2]; Day 21) of 86%.
CCCCCCCCCCCCCCCCCCOCC(COP(=O)([O-])OCC[n+]1ccccc1)NC(=O)OCC (racemic) [10-(6), (rac)-1-0-Octadecyl-2-ethoxycarbonylamino-1,3-propanediol-3-[2-(1-pyridinio)ethyl]phosphate] was tested, and the “Anti-tumor activity (%) *d” value (Fibrosarcoma Meth A [1]) was under 400% and the Mean survival time (Fibrosarcoma Meth A [1]) was 24.0 days.
CCCCCCCCCCCCCCCCCCOCC(COP(=O)([O-])OCC[n+]1ccccc1)NC(=O)NC (racemic) [11-(2), (rac)-1-0-Octadecyl-2-(N'-methylureido)-1,3-propanediol-3-[2-(l-pyridinio)ethyl]phosphate] was tested, and the “Anti-tumor activity (%) *d” value (Fibrosarcoma Meth A [1]) was 350% and the Mean survival time (Fibrosarcoma Meth A [1]) was 21.0 days.
With CCCCCCCCCCCCCCCCCCOCC(COP(=O)([O-])OCC[N+](C)(C)C)OC (racemic) [*e, reference compound] the “Anti-tumor activity (%) *d” value (Fibrosarcoma Meth A [1]) was 242% and the Mean survival time (Fibrosarcoma Meth A [1]) was 14.5 days.
CCCCCCCCCCCCCCCCCCOCCCOP(=O)([O-])OCC[n+]1ccccc1 [3-(29), (rac)-1-0-Octadecyl-1,3-propanediol-3-[2-(1-pyridinio)-ethyl]phosphate] was tested, and the “Anti-tumor activity (%) *d” value (Fibrosarcoma Meth A [1]) was 264% and the Mean survival time (Fibrosarcoma Meth A [1]) was 18.5 days.
With “(rac)-1-O-Octadecyl-2-0-methyl-glycerol-3-[2-(N-methyl-4-morpholino)ethyl]phosphate [3-(15)]” the “Anti-tumor activity (%) *d” value (Fibrosarcoma Meth A [1]) was 433% and the Mean survival time (Fibrosarcoma Meth A [1]) was 26.0 days.
